Results taken from the supplement of paper PMC10307832.

Experiments:
Experiment in all cases: relative viability (nuclei count vs DMSO), 5 days (fraction); higher = more cells survive
EHT 1864 = compound: C1COCCN1CC2=CC(=O)C(=CO2)OCCCCCSC3=C4C=CC(=CC4=NC=C3)C(F)(F)F [EHT 1864]
Method in brief: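 After an overnight hold at 37 °C, lung cancer cell lines in 1536-well plates were pinned with five library-drug doses (not always all listed), each √10 from the next, on vehicle-anchored plates. The cells stayed 5 days without fresh medium, then a one-step fix, permeabilisation and Hoechst stain preceded 4× imaging and MetaXpress nuclear counts. A plate passed only with control CV under 25% and at least one doubling. Viability is the median, over plates, of treated-well nuclei relative to vehicle-well nuclei.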

EHT 1864 + Luminespib = compound: C1COCCN1CC2=CC(=O)C(=CO2)OCCCCCSC3=C4C=CC(=CC4=NC=C3)C(F)(F)F [EHT 1864] + CCNC(=O)c1noc(-c2cc(C(C)C)c(O)cc2O)c1-c1ccc(CN2CCOCC2)cc1 [Luminespib] (partner 0.01 µM)
Method in brief: (§1)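 Values are medians from duplicate plates. Each reflects relative viability, defined as the nuclei count of treated wells over that of vehicle wells. Lung cancer cell lines in 1536-well plates were pin-tool dosed one day after seeding with one drug alone or with a fixed anchor-drug dose plus five library-drug doses (not always all listed) in √10 steps, then fixed, stained and imaged at 4× after 5 days.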

EHT 1864 + Foretinib = compound: C1COCCN1CC2=CC(=O)C(=CO2)OCCCCCSC3=C4C=CC(=CC4=NC=C3)C(F)(F)F [EHT 1864] + COc1cc2c(Oc3ccc(NC(=O)C4(C(=O)Nc5ccc(F)cc5)CC4)cc3F)ccnc2cc1OCCCN1CCOCC1 [Foretinib] (partner 0.25 µM)
Method in brief: as §1

EHT 1864 + OSI-027 = compound: C1COCCN1CC2=CC(=O)C(=CO2)OCCCCCSC3=C4C=CC(=CC4=NC=C3)C(F)(F)F [EHT 1864] + COc1cccc2cc(-c3nc([C@H]4CC[C@H](C(=O)O)CC4)n4ncnc(N)c34)[nH]c12 [OSI-027] (partner 0.5 µM)
Method in brief: as §1

EHT 1864 + Tozasertib = compound: C1COCCN1CC2=CC(=O)C(=CO2)OCCCCCSC3=C4C=CC(=CC4=NC=C3)C(F)(F)F [EHT 1864] + Cc1cc(Nc2cc(N3CCN(C)CC3)nc(Sc3ccc(NC(=O)C4CC4)cc3)n2)n[nH]1 [Tozasertib] (partner 0.1 µM)
Method in brief: as §1

EHT 1864 + Dasatinib = compound: C1COCCN1CC2=CC(=O)C(=CO2)OCCCCCSC3=C4C=CC(=CC4=NC=C3)C(F)(F)F [EHT 1864] + Cc1nc(Nc2ncc(C(=O)Nc3c(C)cccc3Cl)s2)cc(N2CCN(CCO)CC2)n1 [Dasatinib] (partner 0.075 µM)
Method in brief: as §1

EHT 1864 + Phenformin = compound: C1COCCN1CC2=CC(=O)C(=CO2)OCCCCCSC3=C4C=CC(=CC4=NC=C3)C(F)(F)F [EHT 1864] + N=C(N)NC(=N)NCCc1ccccc1 [Phenformin] (partner 250 µM)
Method in brief: as §1

EHT 1864 + Trametinib = compound: C1COCCN1CC2=CC(=O)C(=CO2)OCCCCCSC3=C4C=CC(=CC4=NC=C3)C(F)(F)F [EHT 1864] + CC(=O)Nc1cccc(-n2c(=O)n(C3CC3)c(=O)c3c(Nc4ccc(I)cc4F)n(C)c(=O)c(C)c32)c1 [Trametinib] (partner 0.02 µM)
Method in brief: as §1

EHT 1864 + Palbociclib = compound: C1COCCN1CC2=CC(=O)C(=CO2)OCCCCCSC3=C4C=CC(=CC4=NC=C3)C(F)(F)F [EHT 1864] + CC(=O)c1c(C)c2cnc(Nc3ccc(N4CCNCC4)cn3)nc2n(C2CCCC2)c1=O [Palbociclib] (partner 0.5 µM)
Method in brief: as §1

EHT 1864 + AZD7762 = compound: C1COCCN1CC2=CC(=O)C(=CO2)OCCCCCSC3=C4C=CC(=CC4=NC=C3)C(F)(F)F [EHT 1864] + NC(=O)Nc1cc(-c2cccc(F)c2)sc1C(=O)N[C@H]1CCCNC1 [AZD7762] (partner 0.2 µM)
Method in brief: as §1

EHT 1864 + Pemetrexed = compound: C1COCCN1CC2=CC(=O)C(=CO2)OCCCCCSC3=C4C=CC(=CC4=NC=C3)C(F)(F)F [EHT 1864] + Nc1nc2[nH]cc(CCc3ccc(C(=O)N[C@@H](CCC(=O)O)C(=O)O)cc3)c2c(=O)[nH]1 [Pemetrexed] (partner 0.2 µM)
Method in brief: as §1

EHT 1864 + Decitabine = compound: C1COCCN1CC2=CC(=O)C(=CO2)OCCCCCSC3=C4C=CC(=CC4=NC=C3)C(F)(F)F [EHT 1864] + Nc1ncn([C@H]2C[C@H](O)[C@@H](CO)O2)c(=O)n1 [Decitabine] (partner 2 µM)
Method in brief: as §1

EHT 1864 + Vorinostat = compound: C1COCCN1CC2=CC(=O)C(=CO2)OCCCCCSC3=C4C=CC(=CC4=NC=C3)C(F)(F)F [EHT 1864] + O=C(CCCCCCC(=O)Nc1ccccc1)NO [Vorinostat] (partner 1 µM)
Method in brief: as §1

EHT 1864 + Olaparib = compound: C1COCCN1CC2=CC(=O)C(=CO2)OCCCCCSC3=C4C=CC(=CC4=NC=C3)C(F)(F)F [EHT 1864] + O=C(c1cc(Cc2n[nH]c(=O)c3ccccc23)ccc1F)N1CCN(C(=O)C2CC2)CC1 [Olaparib] (partner 8 µM)
Method in brief: as §1

NCI-H1623 gave a relative viability (EHT 1864; 0.04 µM) of 0.995, a relative viability (EHT 1864; 0.1265 µM) of 0.972 and a relative viability (EHT 1864; 0.4 µM) of 1.02. It also gave a relative viability (EHT 1864; 1.265 µM) of 0.921, a relative viability (EHT 1864; 4 µM) of 1.14 and a relative viability (EHT 1864 + Luminespib; first compound 0.04 µM) of 0.584. The relative viability (EHT 1864 + Luminespib; first compound 0.1265 µM) was 0.522, the relative viability (EHT 1864 + Luminespib; first compound 0.4 µM) was 0.445 and the relative viability (EHT 1864 + Luminespib; first compound 1.265 µM) was 0.581. It also gave a relative viability (EHT 1864 + Luminespib; first compound 4 µM) of 0.384, a relative viability (EHT 1864 + Foretinib; first compound 0.04 µM) of 0.937 and a relative viability (EHT 1864 + Foretinib; first compound 0.1265 µM) of 0.869. It also gave a relative viability (EHT 1864 + Foretinib; first compound 0.4 µM) of 0.855, a relative viability (EHT 1864 + Foretinib; first compound 1.265 µM) of 0.959 and a relative viability (EHT 1864 + Foretinib; first compound 4 µM) of 0.959. It also gave a relative viability (EHT 1864 + OSI-027; first compound 0.04 µM) of 0.439, a relative viability (EHT 1864 + OSI-027; first compound 0.1265 µM) of 0.433 and a relative viability (EHT 1864 + OSI-027; first compound 0.4 µM) of 0.474. For the same cell line, the relative viability (EHT 1864 + OSI-027; first compound 1.265 µM) was 0.475, the relative viability (EHT 1864 + OSI-027; first compound 4 µM) was 0.432 and the relative viability (EHT 1864 + Tozasertib; first compound 0.04 µM) was 0.418. For the same cell line, the relative viability (EHT 1864 + Tozasertib; first compound 0.1265 µM) was 0.394, the relative viability (EHT 1864 + Tozasertib; first compound 0.4 µM) was 0.445 and the relative viability (EHT 1864 + Tozasertib; first compound 1.265 µM) was 0.458. For the same cell line, the relative viability (EHT 1864 + Tozasertib; first compound 4 µM) was 0.399, the relative viability (EHT 1864 + Dasatinib; first compound 0.04 µM) was 0.641 and the relative viability (EHT 1864 + Dasatinib; first compound 0.1265 µM) was 0.676. It also gave a relative viability (EHT 1864 + Dasatinib; first compound 0.4 µM) of 0.514, a relative viability (EHT 1864 + Dasatinib; first compound 1.265 µM) of 0.583 and a relative viability (EHT 1864 + Dasatinib; first compound 4 µM) of 0.477. It also gave a relative viability (EHT 1864 + Phenformin; first compound 0.04 µM) of 0.617, a relative viability (EHT 1864 + Phenformin; first compound 0.1265 µM) of 0.665 and a relative viability (EHT 1864 + Phenformin; first compound 0.4 µM) of 0.576. For the same cell line, the relative viability (EHT 1864 + Phenformin; first compound 1.265 µM) was 0.617 and the relative viability (EHT 1864 + Phenformin; first compound 4 µM) was 0.539.
SW 900 gave a relative viability (EHT 1864; 0.04 µM) of 0.942, a relative viability (EHT 1864; 0.4 µM) of 0.929 and a relative viability (EHT 1864; 1.265 µM) of 0.929. It also gave a relative viability (EHT 1864; 4 µM) of 0.782, a relative viability (EHT 1864 + Trametinib; first compound 0.04 µM) of 0.686 and a relative viability (EHT 1864 + Trametinib; first compound 0.4 µM) of 0.77. The relative viability (EHT 1864 + Trametinib; first compound 1.265 µM) was 0.796, the relative viability (EHT 1864 + Trametinib; first compound 4 µM) was 0.758 and the relative viability (EHT 1864 + Palbociclib; first compound 0.04 µM) was 0.515. For the same cell line, the relative viability (EHT 1864 + Palbociclib; first compound 0.4 µM) was 0.586, the relative viability (EHT 1864 + Palbociclib; first compound 1.265 µM) was 0.573 and the relative viability (EHT 1864 + Palbociclib; first compound 4 µM) was 0.498. For the same cell line, the relative viability (EHT 1864 + Luminespib; first compound 0.04 µM) was 0.177, the relative viability (EHT 1864 + Luminespib; first compound 0.4 µM) was 0.181 and the relative viability (EHT 1864 + Luminespib; first compound 1.265 µM) was 0.177. For the same cell line, the relative viability (EHT 1864 + Luminespib; first compound 4 µM) was 0.145, the relative viability (EHT 1864 + Foretinib; first compound 0.04 µM) was 0.524 and the relative viability (EHT 1864 + Foretinib; first compound 0.4 µM) was 0.862. The relative viability (EHT 1864 + Foretinib; first compound 1.265 µM) was 0.89, the relative viability (EHT 1864 + Foretinib; first compound 4 µM) was 0.687 and the relative viability (EHT 1864 + OSI-027; first compound 0.04 µM) was 0.555. For the same cell line, the relative viability (EHT 1864 + OSI-027; first compound 0.4 µM) was 0.548, the relative viability (EHT 1864 + OSI-027; first compound 1.265 µM) was 0.583 and the relative viability (EHT 1864 + OSI-027; first compound 4 µM) was 0.483. For the same cell line, the relative viability (EHT 1864 + Tozasertib; first compound 0.04 µM) was 0.531, the relative viability (EHT 1864 + Tozasertib; first compound 0.4 µM) was 0.49 and the relative viability (EHT 1864 + Tozasertib; first compound 1.265 µM) was 0.577. It also gave a relative viability (EHT 1864 + Tozasertib; first compound 4 µM) of 0.481, a relative viability (EHT 1864 + Dasatinib; first compound 0.04 µM) of 0.809 and a relative viability (EHT 1864 + Dasatinib; first compound 0.4 µM) of 0.684. The relative viability (EHT 1864 + Dasatinib; first compound 1.265 µM) was 1.02, the relative viability (EHT 1864 + Dasatinib; first compound 4 µM) was 0.552 and the relative viability (EHT 1864 + Phenformin; first compound 0.04 µM) was 0.435. The relative viability (EHT 1864 + Phenformin; first compound 0.4 µM) was 0.569, the relative viability (EHT 1864 + Phenformin; first compound 1.265 µM) was 0.521 and the relative viability (EHT 1864 + Phenformin; first compound 4 µM) was 0.597. For the same cell line, the relative viability (EHT 1864 + AZD7762; first compound 0.04 µM) was 0.582, the relative viability (EHT 1864 + AZD7762; first compound 0.4 µM) was 0.681 and the relative viability (EHT 1864 + AZD7762; first compound 1.265 µM) was 0.632. It also gave a relative viability (EHT 1864 + AZD7762; first compound 4 µM) of 0.59, a relative viability (EHT 1864 + Pemetrexed; first compound 0.04 µM) of 0.477 and a relative viability (EHT 1864 + Pemetrexed; first compound 0.4 µM) of 0.463. The relative viability (EHT 1864 + Pemetrexed; first compound 1.265 µM) was 0.473, the relative viability (EHT 1864 + Pemetrexed; first compound 4 µM) was 0.446 and the relative viability (EHT 1864 + Decitabine; first compound 0.04 µM) was 0.449. For the same cell line, the relative viability (EHT 1864 + Decitabine; first compound 0.4 µM) was 0.419, the relative viability (EHT 1864 + Decitabine; first compound 1.265 µM) was 0.46 and the relative viability (EHT 1864 + Decitabine; first compound 4 µM) was 0.504. The relative viability (EHT 1864 + Vorinostat; first compound 0.04 µM) was 0.54, the relative viability (EHT 1864 + Vorinostat; first compound 0.4 µM) was 0.531 and the relative viability (EHT 1864 + Vorinostat; first compound 1.265 µM) was 0.589. The relative viability (EHT 1864 + Vorinostat; first compound 4 µM) was 0.467, the relative viability (EHT 1864 + Olaparib; first compound 0.04 µM) was 0.73 and the relative viability (EHT 1864 + Olaparib; first compound 0.4 µM) was 0.907. For the same cell line, the relative viability (EHT 1864 + Olaparib; first compound 1.265 µM) was 0.857 and the relative viability (EHT 1864 + Olaparib; first compound 4 µM) was 0.803.
